In patent US20230295182A1, “SPIRO DERIVATIVES OF ALPHA-D-GALACTOPYRANOSIDES” (Idorsia Pharmaceuticals Ltd, priority 2020, published 2023):

Assays:
[1] = target: human Gal-1 (hGal-1) (Homo sapiens, UniProt P09382); assay: Competitive binding assay: biotinylated hGal-1 to microplate-adsorbed asialofetuin (ASF); conditions: Activities on hGal-1; binding to ASF-coated plates, 3 hours at 4° C.; mean values; read-out: Gal-1 IC50
In short: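 Plate-adsorbed asialofetuin is incubated 3 h at 4 °C with biotinylated hGal-1, optionally its all-serine-substituted cysteine variant, plus compound dilutions. ABTS color after 1 h streptavidin-peroxidase (80 ng/mL) at 4 °C reports binding. Reported IC50 is a mean across repeat runs.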

[2] = target: human Gal-3 (hGal-3) (Homo sapiens (Human), UniProt P17931); assay: Competitive binding assay: biotinylated hGal-3 to microplate-adsorbed asialofetuin (ASF); conditions: Activity on hGal-3; binding to ASF-coated plates, 3 hours at 4° C.; mean values
Chain of human Gal-3 (hGal-3) (P17931 whole entry): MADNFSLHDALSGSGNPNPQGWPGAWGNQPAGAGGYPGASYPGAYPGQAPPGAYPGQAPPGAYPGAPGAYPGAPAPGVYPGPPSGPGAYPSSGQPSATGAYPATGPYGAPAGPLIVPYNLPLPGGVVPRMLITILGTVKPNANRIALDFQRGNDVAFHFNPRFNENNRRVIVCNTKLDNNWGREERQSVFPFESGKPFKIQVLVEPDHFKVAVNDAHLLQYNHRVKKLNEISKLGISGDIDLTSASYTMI
In short: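 Biotinylated hGal-3 (300-1000 ng/mL) binding to plate-adsorbed asialofetuin, with DMSO-diluted compound added, incubated 3 h at 4 °C. After washing, bound protein detected with streptavidin-peroxidase (80 ng/mL, 1 h, 4 °C) and ABTS substrate, read spectrophotometrically. IC50 given as mean of several measurements.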

Chain of human Gal-1 (hGal-1) (P09382 2-135 limits assumed): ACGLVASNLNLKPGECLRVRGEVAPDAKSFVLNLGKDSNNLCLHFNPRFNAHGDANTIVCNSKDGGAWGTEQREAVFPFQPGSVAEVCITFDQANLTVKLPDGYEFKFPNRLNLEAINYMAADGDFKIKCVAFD

Q: How did the IC50 [1] turn out when CO[C@@H]1[C@@H](n2cc(-c3ccc(F)c(F)c3F)nn2)[C@@H](O)[C@@H](CO)O[C@@H]1CC1=NO[C@]2(CC[C@H](C#N)CC2)C1 [Example 1.59, (5r,8R)-3-(((2R,3R,4S,5R,6R)-5-hydroxy-6-(hydroxymethyl)-3-methoxy-4-(4-(2,3,4-trifluorophenyl)-1H-1,2,3-triazol-1-yl)tetrahydro-2H-pyran-2-yl)methyl)-1-oxa-2-azaspiro[4.5]dec-2-ene-8-carbonitrile] was run?
A: Its IC50 is 220 nM.

Q: And the IC50 [2]?
A: Its IC50 is 130 nM.
